US12409200B2, “Composition for treating hair loss or promoting hair growth comprising milk thistle flower extract as an active ingredient” (BioSpectrum, Inc., priority 2021, dated 2025)

Tested on: human skin
Experiment: Human skin safety test: repeated insult patch test
Format: in vivo
Conditions: for Number of subjects showing reaction ±: grade ±
Method: In order to confirm that the extract of seed-removed milk thistle flowers according to the present invention is safe for human skin, a skin safety verification test was performed. To this end, a repeated insult patch test was conducted. Nourishing creams containing the seed-removed milk thistle extract of Example 1 in amounts of 0.1%, 0.5% and 1%, respectively, were prepared. Specifically, a water phase containing purified water, triethanolamine and propylene glycol was dissolved by heating to 70° C. and then emulsified by adding a solution obtained by dissolving beeswax, liquid paraffin, an oil component, an emulsifier and a preservative by heating to 70° C. After completion of emulsification, the solution was cooled to 45° C., and the seed-removed milk thistle flower extract was added thereto in amounts of 0.1%, 0.5% and 1% and dispersed therein, followed by cooling to 30° C. As the content of the extract of seed-removed milk thistle flowers was increased from 0.1% to 0.5% and 1%, the content of liquid paraffin was decreased from 9.91% to 9.51% and 9.01%, respectively, thereby preparing nourishing creams. Using the nourishing creams prepared as described above, a repeated insult patch test was conducted on the upper arm areas of 30 healthy adults every other day for a total of 9 times for 24 hours per time to determine whether the extract of seed-removed milk thistle flowers irritated the skin. The patch test was performed using a Finn chamber (Epitest Ltd., Finland). 15 μl of each of the external skin preparations was dropped into the chamber, and then the patch test was performed. Average degree of reaction=[[(reaction index×degree of reaction)/(total number of subjects×highest score (4)]×100]÷number of tests (9) [Equation 2] In the degree of reaction, ± represents a score of 1 point, […], and ++ represents a score of 4. When the average degree of reaction is less than 3, the corresponding composition is determined to be safe.

SMILES: CC(C)=CCC/C(C)=C/CC/C(C)=C/CC/C=C(\C)CC/C=C(\C)CCC=C(C)C [Control (squalene), squalene]
- Average degree of reaction (30 healthy adults, upper arm, 9 patch tests of 24 hours, Equation 2, less than 3 = safe): 0.18
- Number of subjects showing reaction ± (Week 1, 1st test): 1
- Number of subjects showing reaction ± (Week 1, 2nd test): 1
